In ChEMBL document CHEMBL6177974, “Synthesis and Pharmacological Characterization of Novel Peripheral Cannabinoid-1 Receptor Blockers Based on a Tricyclic Scaffold” (J Med Chem, 2025):
Active and inactive are the calls of the source. The calls are words filed in the database; no cut-off is given here.

Key:
[1] = molecular target: Cannabinoid receptor 1 (Mus musculus) (UniProt P47746); assay: Antagonist activity at CB1R in C57Bl/6Jhsd mouse cortex membrane assessed as inhibition of [35S]GTPgammaS binding incubated for 1 hr by liquid scintillation counter analysis; type: functional, cell membranes; settings: filed as antagonist
Cannabinoid receptor 1 (Mus musculus), sequence (P47746 whole entry): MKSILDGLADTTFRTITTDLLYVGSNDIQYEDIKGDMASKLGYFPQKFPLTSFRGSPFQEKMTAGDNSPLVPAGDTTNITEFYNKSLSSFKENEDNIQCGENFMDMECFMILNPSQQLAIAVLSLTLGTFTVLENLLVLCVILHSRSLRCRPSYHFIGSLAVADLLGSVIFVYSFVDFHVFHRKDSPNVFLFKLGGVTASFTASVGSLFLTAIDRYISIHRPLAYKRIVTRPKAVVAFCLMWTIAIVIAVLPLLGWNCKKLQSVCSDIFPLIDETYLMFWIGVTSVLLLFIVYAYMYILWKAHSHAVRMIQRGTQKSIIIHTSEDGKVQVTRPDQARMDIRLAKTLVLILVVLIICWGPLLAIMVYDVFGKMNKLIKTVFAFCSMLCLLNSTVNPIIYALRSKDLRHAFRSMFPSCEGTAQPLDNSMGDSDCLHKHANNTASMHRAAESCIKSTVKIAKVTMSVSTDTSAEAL

[2] = tested on: Mus musculus; assay: Inhibition of WIN55212-induced catalepsy in male C57Bl/6J mouse at 10 mg/kg, po; type: functional, organism-based
[3] = molecular target: Cannabinoid receptor 1 (Mus musculus) (UniProt P47746); assay: Inverse agonist activity at CB1R in C57Bl/6Jhsd mouse cortex membrane assessed as inhibition of [35S]GTPgammaS binding incubated for 1 hr by liquid scintillation counter analysis; type: functional, cell membranes; settings: filed as inverse agonist
[4] = Stability in SGF at pH 1.2 by HPLC analysis; type: physicochemical; settings: simulated gi fluid
[5] = Stability in SIF at pH 6.8 by HPLC analysis; type: physicochemical; settings: simulated gi fluid
[6] = Protein binding in mouse brain at 1 uM measured after 5 hrs by equilibrium dialysis method; type: ADME, tissue-based
[7] = Mutagenicity in Salmonella typhimurium TA98 incubated for 48 to 72 hrs in presence of liver S9 fraction by mini-Ames test; type: toxicity, subcellular; settings: salmonella enterica subsp. enterica serovar typhimurium, time 48-72 hrs
[8] = Mutagenicity in Salmonella typhimurium TA100 incubated for 48 to 72 hrs in presence of liver S9 fraction by mini-Ames test; type: toxicity, subcellular; settings: salmonella enterica subsp. enterica serovar typhimurium, time 48-72 hrs
[9] = Toxicity in male C57Bl/6J mouse assessed as CNS-mediated hyperactivity at 1 to 10 mg/kg, po; type: organism-based; settings: in vivo, dose 1-10 mg/kg
[10] = Toxicity in male C57Bl/6J mouse assessed as change in locomotor activity at 1 to 10 mg/kg, po; type: organism-based; settings: in vivo, dose 1-10 mg/kg
[11] = tested on: Mus musculus; assay: Inhibition of HU-210-induced hypoactivity in male C57Bl/6J mouse at 1 to 10 mg/kg, po; type: functional, organism-based; settings: dose 1-10 mg/kg
[12] = tested on: Mus musculus; assay: Anti-obese activity in diet-induced obese male C57Bl/6J mouse model assessed as decrease in body weight at 1 mg/kg/day, po treated for 24 days; type: functional, organism-based; settings: time 24.0 day
[13] = tested on: Mus musculus; assay: Anti-obese activity in diet-induced obese male C57Bl/6J mouse model assessed as decrease in total body fat at 1 mg/kg/day, po treated for 24 days by EchoMRI analysis; type: functional, organism-based; settings: time 24.0 day
[14] = tested on: Mus musculus; assay: Anti-obese activity in diet-induced obese male C57Bl/6J mouse model assessed as increase in lean body mass at 1 mg/kg/day, po treated for 24 days by EchoMRI analysis; type: functional, organism-based; settings: time 24.0 day
[15] = tested on: Mus musculus; assay: Anti-obese activity in diet-induced obese male C57Bl/6J mouse model assessed as reduction in glucose level in fasting condition at 1 mg/kg/day, po treated for 24 days; type: functional, organism-based; settings: time 24.0 day
[16] = tested on: Mus musculus; assay: Anti-obese activity in diet-induced obese male C57Bl/6J mouse model assessed as reduction in hypertriglyceridemia at 1 mg/kg/day, po treated for 24 days; type: functional, organism-based; settings: time 24.0 day
[17] = tested on: Mus musculus; assay: Anti-obese activity in diet-induced obese male C57Bl/6J mouse model assessed as reduction in hypercholesterolemia at 1 mg/kg/day, po treated for 24 days; type: functional, organism-based; settings: time 24.0 day
[18] = tested on: Mus musculus; assay: Anti-obese activity in diet-induced obese male C57Bl/6J mouse model assessed as reversal of hepatic steatosis at 1 mg/kg/day, po treated for 24 days by H and E staining based analysis; type: functional, organism-based; settings: time 24.0 day
[19] = tested on: Mus musculus; assay: Anti-obese activity in diet-induced obese male C57Bl/6J mouse model assessed as reversal of hepatocellular damage at 1 mg/kg/day, po treated for 24 days by H and E staining based analysis; type: functional, organism-based; settings: time 24.0 day
[20] = tested on: Mus musculus; assay: Anti-obese activity in diet-induced obese male C57Bl/6J mouse model assessed as reduction in liver triglyceride content at 1 mg/kg/day, po treated for 24 days; type: functional, organism-based; settings: time 24.0 day
[21] = tested on: Mus musculus; assay: Anti-obese activity in diet-induced obese male C57Bl/6J mouse model assessed as reduction in ALT level at 1 mg/kg/day, po treated for 24 days; type: functional, organism-based; settings: time 24.0 day
[22] = tested on: Mus musculus; assay: Anti-obese activity in diet-induced obese male C57Bl/6J mouse model assessed as reduction in AST level at 1 mg/kg/day, po treated for 24 days; type: functional, organism-based; settings: time 24.0 day
[23] = tested on: Mus musculus; assay: Anti-obese activity in diet-induced obese male C57Bl/6J mouse model assessed as reduction in ALP level at 1 mg/kg/day, po treated for 24 days; type: functional, organism-based; settings: time 24.0 day

For CS(=O)(=O)N[C@H]1CCCOc2c1nn(-c1ccccc1Cl)c2-c1ccc(Cl)cc1, the Activity [1] was “Active; Compound Exhibited As Neutral Antagonist”.
With Cc1c(C(=O)NN2CCCCC2)nn(-c2ccc(Cl)cc2Cl)c1-c1ccc(Cl)cc1 the inhibition [2] was “Active”.
With Cc1ccc(S(=O)(=O)N[C@H]2CCCOc3c2nn(-c2ccccc2Cl)c3-c2ccc(Cl)cc2)cc1 the Activity [3] was “Active”.
In the case of CNC(=O)N[C@H]1CCCOc2c1nn(-c1ccccc1Cl)c2-c1ccc(Cl)cc1, the Activity [1] was “Active; Compound Exhibited As Neutral Antagonist”.
For O=S(=O)(N[C@H]1CCCOc2c1nn(-c1ccccc1Cl)c2-c1ccc(Cl)cc1)c1ccc(Cl)cc1, the Stability [4] was “Stable”, the Stability [5] was “Stable” and the PB [6] was “Active”. The Activity [7] was “Non-toxic”, the Activity [8] was “Non-toxic” and the Activity [9] was “Non-toxic”. The Activity [10] was “Non-toxic”, the inhibition [11] was “inactive” and the Activity [12] was “Active”. For the same compound, the Activity [13] was “Active”, the Activity [14] was “Active” and the Activity [15] was “Active”. For the same compound, the Activity [16] was “Active”, the Activity [17] was “Active” and the Activity [18] was “Active”. For the same compound, the Activity [19] was “Active”, the Activity [20] was “Active” and the Activity [21] was “Active”. The Activity [22] was “Active”, the Activity [23] was “Active” and the Activity [1] was “Active; Compound Exhibited As Neutral Antagonist”.
